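Briefly, cells in 96-well plates were exposed to five compound concentrations for 48 h, and endpoints were estimated by linear interpolation. At the GI50, growth is halved.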 Calls of active or inactive are those of the source. Rule as the data show it: active = GI50 up to about 1.1 µM and inactive = higher. Residues, ends and D or L forms follow the SMILES beside them. Groups on a side chain read outwards from the residue. *: point of attachment. Cbz = O=C(OCc1ccccc1)*; Boc = CC(C)(C)OC(=O)*
Tests used:
Assay in all cases: NCI-60 cell line screen, 48 h
SK-MEL-2 = test system: SK-MEL-2
HOP-62 = test system: HOP-62
SK-OV-3 = test system: SK-OV-3
U-251 = test system: U-251
SN12C = test system: SN12C
HT-29 = test system: HT-29
IGROV-1 = test system: IGROV-1
SF-295 = test system: SF-295
SNB-75 = test system: SNB-75
LOX IMVI = test system: LOX IMVI
COLO 205 = test system: COLO 205
HCT-116 = test system: HCT-116
MDA-N = test system: MDA-N
CAKI-1 = test system: CAKI-1
MDA-MB-435 = test system: MDA-MB-435
NCI-H23 = test system: NCI-H23
SNB-19 = test system: SNB-19
MCF7 = test system: MCF7
Hs-578T = test system: Hs-578T
RPMI-8226 = test system: RPMI-8226

Measured: GI50

O=C(/C=C/c1ccc(O)cc1)c1ccc2c(c1)OCO2
inactive: SK-MEL-2 27 µM | HOP-62 18.7 µM | SK-OV-3 26.1 µM | U-251 18.4 µM | SN12C 15.9 µM | HT-29 13.4 µM | IGROV-1 15.5 µM | SF-295 21.8 µM | SNB-75 12.4 µM | LOX IMVI 18.7 µM | COLO 205 14.7 µM | HCT-116 12.5 µM | MDA-N 24 µM | CAKI-1 4.56 µM | MDA-MB-435 22.8 µM | NCI-H23 18.2 µM | SNB-19 17.1 µM

O=c1[nH]c(=O)n(C2CC(O)C(CO)O2)cc1OC/C=C/Cc1ccccc1 (configuration not stated)
inactive: HOP-62 > 100 µM | SK-OV-3 > 100 µM | U-251 > 100 µM | SN12C > 100 µM | MCF7 > 100 µM | HT-29 > 100 µM | Hs-578T > 100 µM | IGROV-1 > 100 µM | SF-295 > 100 µM | SNB-75 > 100 µM | LOX IMVI > 100 µM | COLO 205 > 100 µM | HCT-116 > 100 µM | CAKI-1 > 100 µM | RPMI-8226 > 100 µM | MDA-MB-435 > 100 µM | NCI-H23 > 100 µM | SNB-19 > 100 µM

CC(C)CC(NC(=O)OCc1ccccc1)C(=O)NCCCCC(NC(=O)C(CCCCNC(=O)C(CC(C)C)NC(=O)OCc1ccccc1)NC(=O)C(CCCCNC(=O)C(CC(C)C)NC(=O)OCc1ccccc1)NC(=O)C(CCCCNC(=O)C(CC(C)C)NC(=O)OCc1ccccc1)NC(=O)OC(C)(C)C)C(=O)O (configuration not stated) (Boc-K([Leu-Cbz])K([Leu-Cbz])K([Leu-Cbz])K([Leu-Cbz])-OH; configuration not given here)
inactive: SK-MEL-2 > 25 µM | HOP-62 > 25 µM | U-251 > 25 µM | SN12C > 25 µM | MCF7 > 25 µM | HT-29 > 25 µM | IGROV-1 > 25 µM | SNB-75 > 25 µM | LOX IMVI > 25 µM | HCT-116 > 25 µM | MDA-N > 25 µM | CAKI-1 > 25 µM | RPMI-8226 > 25 µM | MDA-MB-435 > 25 µM | NCI-H23 > 25 µM | SNB-19 > 25 µM

COc1cccc(Nc2nc3c([nH]2)c(=O)n(C)c(=O)n3C)c1
inactive: HOP-62 > 10 µM | SK-OV-3 > 10 µM | SN12C > 10 µM | MCF7 > 10 µM | HT-29 > 10 µM | IGROV-1 > 10 µM | SF-295 > 10 µM | SNB-75 > 10 µM | LOX IMVI > 10 µM | COLO 205 > 10 µM | MDA-N > 10 µM | CAKI-1 > 10 µM | RPMI-8226 > 10 µM | MDA-MB-435 > 10 µM | NCI-H23 > 10 µM

CN(C)Nc1cc(=O)[nH]c(=O)[nH]1
inactive: HOP-62 > 100 µM | U-251 > 100 µM | SN12C > 100 µM | MCF7 > 100 µM | HT-29 > 100 µM | IGROV-1 > 100 µM | SF-295 > 100 µM | LOX IMVI > 100 µM | COLO 205 > 100 µM | HCT-116 > 100 µM | MDA-N > 100 µM | RPMI-8226 > 100 µM | MDA-MB-435 > 100 µM | SNB-19 > 100 µM

CCCCCN(CCCCC)C(=O)[C@H](CCC(=O)O)NC(=O)c1cc2ccccc2[nH]1
inactive: SK-MEL-2 41.9 µM | HOP-62 56 µM | SK-OV-3 > 100 µM | U-251 35.7 µM | SN12C 48.5 µM | HT-29 59.6 µM | IGROV-1 45.4 µM | SF-295 57.8 µM | SNB-75 32.7 µM | LOX IMVI > 100 µM | COLO 205 > 100 µM | HCT-116 28.3 µM | CAKI-1 51.9 µM | RPMI-8226 21.8 µM | NCI-H23 28.2 µM | SNB-19 35.6 µM

CCN(CC)CCN(C(=O)C(C)(C)C)c1ccccc1N
inactive: HOP-62 > 100 µM | SK-OV-3 > 100 µM | U-251 > 100 µM | SN12C > 100 µM | MCF7 > 100 µM | HT-29 > 100 µM | IGROV-1 > 100 µM | SF-295 > 100 µM | SNB-75 > 100 µM | HCT-116 > 100 µM | MDA-N > 100 µM | CAKI-1 > 100 µM | RPMI-8226 > 100 µM | NCI-H23 > 100 µM | SNB-19 > 100 µM

CC(=O)OCC1OC(n2cc(I)c(=O)[nH]c2=O)C(OC(C)=O)C(OC(C)=O)C1OC(C)=O (configuration not stated)
inactive: SK-MEL-2 > 100 µM | HOP-62 > 100 µM | SK-OV-3 > 100 µM | U-251 > 100 µM | SN12C > 100 µM | HT-29 > 100 µM | IGROV-1 > 100 µM | SF-295 > 100 µM | SNB-75 82.8 µM | LOX IMVI > 100 µM | COLO 205 > 100 µM | HCT-116 > 100 µM | CAKI-1 > 100 µM | RPMI-8226 > 100 µM | NCI-H23 > 100 µM | SNB-19 > 100 µM

O=C(Nn1c(-c2cccs2)nc2ccc(I)cc2c1=O)c1ccccc1
inactive: HOP-62 40.7 µM | U-251 24.7 µM | SN12C 35.6 µM | HT-29 29.8 µM | IGROV-1 20.2 µM | SF-295 26.9 µM | LOX IMVI 21.4 µM | COLO 205 30.7 µM | HCT-116 35.3 µM | MDA-N 43.9 µM | CAKI-1 21.9 µM | MDA-MB-435 20.6 µM | NCI-H23 21.2 µM | SNB-19 21.3 µM

O=C1CC(c2ccccc2)[S+]([O-])c2ccccc2N1 (configuration not stated)
inactive: HOP-62 > 100 µM | SK-OV-3 > 100 µM | U-251 > 100 µM | SN12C > 100 µM | MCF7 > 100 µM | HT-29 > 100 µM | Hs-578T > 100 µM | IGROV-1 > 100 µM | SF-295 > 10 µM | SNB-75 > 100 µM | LOX IMVI > 100 µM | COLO 205 > 100 µM | HCT-116 > 100 µM | CAKI-1 > 100 µM | RPMI-8226 > 100 µM | MDA-MB-435 > 100 µM | NCI-H23 > 100 µM | SNB-19 > 100 µM

CCOC(=O)/C(C#N)=C/c1ccnc2ccccc12
inactive: SK-MEL-2 > 100 µM | HOP-62 > 100 µM | SK-OV-3 > 100 µM | U-251 > 100 µM | SN12C 76.4 µM | HT-29 > 100 µM | Hs-578T > 100 µM | IGROV-1 40.2 µM | SF-295 93.1 µM | SNB-75 > 100 µM | LOX IMVI 15.6 µM | COLO 205 > 100 µM | HCT-116 2.19 µM | MDA-N > 100 µM | CAKI-1 > 100 µM | RPMI-8226 25.4 µM | MDA-MB-435 37.2 µM | NCI-H23 31.8 µM | SNB-19 81.7 µM

CC1=NN(C(=O)CC(=O)NC(=O)CC(=O)Nc2ccccc2F)C(=O)C1/N=N/c1ccc([N+](=O)[O-])cc1 (configuration not stated)
inactive: SK-MEL-2 > 100 µM | HOP-62 56.5 µM | SK-OV-3 45.3 µM | U-251 21.3 µM | SN12C > 100 µM | HT-29 19.8 µM | IGROV-1 52 µM | SF-295 37.2 µM | SNB-75 34.2 µM | LOX IMVI 19.6 µM | COLO 205 31.2 µM | HCT-116 21 µM | CAKI-1 63.1 µM | RPMI-8226 22.6 µM | NCI-H23 51.9 µM | SNB-19 60.1 µM

O=C1CSC(c2cccc([N+](=O)[O-])c2)N1c1ccc(-c2ccc(-n3c(-c4ccccc4)nc4ccccc4c3=O)cc2)cc1 (configuration not stated)
inactive: SK-MEL-2 29.2 µM | HOP-62 63.7 µM | SK-OV-3 > 100 µM | U-251 33.5 µM | SN12C 48.6 µM | MCF7 17.3 µM | HT-29 33.4 µM | Hs-578T 49.1 µM | IGROV-1 35.3 µM | SF-295 45.8 µM | LOX IMVI 34 µM | COLO 205 21.1 µM | HCT-116 24.7 µM | CAKI-1 > 100 µM | RPMI-8226 30 µM | MDA-MB-435 27 µM | NCI-H23 59.8 µM | SNB-19 59.6 µM

C=CCN1C(=O)/C(=C/c2ccccc2)N=C1SC/C=C/C
inactive: SK-MEL-2 26.2 µM | HOP-62 > 100 µM | SK-OV-3 > 100 µM | U-251 48.1 µM | SN12C 40.2 µM | MCF7 33.1 µM | Hs-578T 69.5 µM | IGROV-1 > 100 µM | SF-295 61.2 µM | SNB-75 46.2 µM | LOX IMVI 49.1 µM | COLO 205 52.2 µM | HCT-116 34.5 µM | CAKI-1 > 100 µM | RPMI-8226 15.7 µM | MDA-MB-435 40.8 µM | NCI-H23 58.7 µM | SNB-19 > 100 µM

COc1cc(C2=NNC(=O)c3ccccc3N2c2nc(-c3cccs3)nc3ccc(Br)cc23)cc(OC)c1OC
inactive: SK-MEL-2 31.2 µM | HOP-62 15.6 µM | SK-OV-3 65.6 µM | U-251 6.1 µM | SN12C 18.9 µM | MCF7 2.33 µM | HT-29 7.73 µM | Hs-578T 5.48 µM | IGROV-1 10.8 µM | SF-295 5.06 µM | SNB-75 55 µM | COLO 205 5.24 µM | HCT-116 12.4 µM | CAKI-1 15.3 µM | RPMI-8226 2.42 µM | MDA-MB-435 6.82 µM | NCI-H23 7.11 µM | SNB-19 22.6 µM

O=C(Nc1ccc(Cl)cc1)NS(=O)(=O)c1c(-c2ccccc2)oc2ccccc2c1=O
inactive: SK-MEL-2 45.2 µM | HOP-62 71.6 µM | SK-OV-3 > 100 µM | U-251 58.2 µM | SN12C > 100 µM | HT-29 57.8 µM | Hs-578T > 100 µM | IGROV-1 83 µM | SF-295 36.2 µM | SNB-75 > 100 µM | LOX IMVI 9.25 µM | COLO 205 56.4 µM | HCT-116 92.7 µM | MDA-N 44.7 µM | CAKI-1 52.1 µM | RPMI-8226 58.9 µM | MDA-MB-435 75 µM | NCI-H23 67 µM | SNB-19 > 100 µM

Reference: ChEMBL document CHEMBL1201862, “PubChem BioAssay data set” (2004)
